Literature values, collected in patent US20060159628A1, “Nanoparticulate benzothiophene formulations” (Elan Pharma International Limited, priority 2004, published 2006).

Key:
uterine tissue = conditions: ovariectomized (OVX) rats
MCF-7 cells = conditions: cell culture

Cl.O=C(c1ccc(OCCN2CCCCC2)cc1)c1c(-c2ccc(O)cc2)sc2cc(O)ccc12 [Raloxifene hydrochloride, methanone, [6-hydroxy-2-(4-hydroxyphenyl)benzo[b]thien-3-yl]-[4-[2-(1-piperidinyl)ethoxy]phenyl]-, hydrochloride]
uterotrophic response (uterine tissue): only minimal uterotrophic response | solubility in water: very slightly soluble | estrogen-dependent proliferation in MCF-7 cells (MCF-7 cells): inhibits estrogen-dependent proliferation
